Source: patent publication US20250002471A1 (Gilead Sciences, Inc., priority 2020, published 2025)

Legend:
TLR7 = molecular target: T1, TLR7 (Homo sapiens, UniProt Q9NYK1); assay: Human PBMC cell-based assay, TLR7 agonist GS-986 stimulation, cytokine (IL-6 and IFNα) readout; conditions: human PBMCs, GS-986 400 nM, 6 hours; Table 26; read-out: TLR-7 EC50
T1 construct: lymphocytes, monocytes and dendritic cells that express TLR7, TLR8 and TLR9; endogenous in cells; host or cells: human PBMCs from healthy donors
T1 sequence (Q9NYK1 27-1049): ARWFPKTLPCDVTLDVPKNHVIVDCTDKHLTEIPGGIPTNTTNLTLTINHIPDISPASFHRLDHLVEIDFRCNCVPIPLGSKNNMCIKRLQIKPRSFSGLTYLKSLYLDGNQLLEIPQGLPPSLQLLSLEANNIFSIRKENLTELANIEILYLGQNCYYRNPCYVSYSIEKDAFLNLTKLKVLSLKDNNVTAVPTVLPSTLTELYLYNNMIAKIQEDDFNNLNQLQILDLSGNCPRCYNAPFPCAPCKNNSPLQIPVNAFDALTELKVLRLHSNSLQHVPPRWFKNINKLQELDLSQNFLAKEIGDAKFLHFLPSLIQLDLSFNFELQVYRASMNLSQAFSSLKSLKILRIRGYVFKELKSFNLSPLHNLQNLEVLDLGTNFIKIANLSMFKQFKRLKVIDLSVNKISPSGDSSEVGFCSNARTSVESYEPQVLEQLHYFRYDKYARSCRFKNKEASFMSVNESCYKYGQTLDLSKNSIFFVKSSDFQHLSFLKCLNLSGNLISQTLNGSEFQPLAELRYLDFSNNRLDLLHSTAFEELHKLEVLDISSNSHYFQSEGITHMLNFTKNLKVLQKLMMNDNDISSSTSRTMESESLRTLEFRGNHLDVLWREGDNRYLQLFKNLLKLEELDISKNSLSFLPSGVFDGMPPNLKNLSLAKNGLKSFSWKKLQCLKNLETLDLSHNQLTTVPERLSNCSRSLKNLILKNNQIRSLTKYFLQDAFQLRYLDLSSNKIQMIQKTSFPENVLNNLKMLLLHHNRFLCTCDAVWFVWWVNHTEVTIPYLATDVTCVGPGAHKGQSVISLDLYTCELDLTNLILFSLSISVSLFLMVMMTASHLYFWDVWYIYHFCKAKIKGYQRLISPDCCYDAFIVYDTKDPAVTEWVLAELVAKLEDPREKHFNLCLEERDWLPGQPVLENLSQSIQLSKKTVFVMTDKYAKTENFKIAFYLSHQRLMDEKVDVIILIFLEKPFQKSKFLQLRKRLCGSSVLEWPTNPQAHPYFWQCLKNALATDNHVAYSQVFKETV
From the text: (§1) Human peripheral blood mononuclear cells (PBMCs) consist of lymphocytes, monocytes and dendritic cells that express TLR7, TLR8 and TLR9. These cells respond to TLR7, TLR8 and TLR9 ligand stimulation and produce cytokines and chemokines in vitro and in vivo. Human PBMCs are therefore suitable to be used in a cell-based assay to assess the in vitro potency of a TLR 7, 8, and/or 9 antagonist. The result is expected to be more translatable to the pharmacodynamics response in vivo than cell line-based assays.
(§2) Cryopreserved human PBMCs from healthy donors were thawed and resuspended in RPMI-1640 media with L-glutamine (Corning) supplemented with 10% Fetal Bovine Serum (Hyclone) and 1X Penicillin-Streptomycin (Corning). After counting, the cell density was adjusted to 2 million cells/ml and incubated for 1 hour at 37° C., 5% CO2 for recovery. Following the recovery, the cells were plated by adding 50p per well (100,000 cells) to 384-well cell culture plates (Greiner) containing 250nl of test antagonists in 100% DMSO per well, in a 10 points dose response in quadruplicates. PBMCs were incubated in the presence of test antagonists for one hour at 37° C., 5% CO2 before being stimulated with a TLR7 or TLR9 agonist. GS-986 (Gilead Sciences) was used as the TLR7 agonist at a final concentration of 400 nM. ODN-2216 (InvivoGen) was used as the TLR9 agonist at a final concentration of 3μM. PBMCs were incubated in the presence of the test antagonist and the TLR7 (or TLR9) agonist for an additional 6 hours at 37° C., 5% CO2. At the end of the incubation, the cell culture plates were centrifuged at 500 g for 5 min, and the cell culture supernatant was collected. The level of cytokines (IL-6 and IFNα) in the supernatant was measured by electrochemiluminescence immunoassays (Mesoscale Discovery) following manufacturer's recommended protocols. The level of cytokine measured was plotted against the test antagonist concentration and fitted to a sigmoidal function to determine the EC50, which are shown below in Table 26.

TLR9 = molecular target: T2, TLR9 (Homo sapiens, UniProt Q9NR96); assay: Human PBMC cell-based assay, TLR9 agonist ODN-2216 stimulation, cytokine (IL-6 and IFNα) readout; conditions: human PBMCs, ODN-2216 3 μM, 6 hours; Table 26; read-out: TLR-9 EC50
T2 construct: lymphocytes, monocytes and dendritic cells that express TLR7, TLR8 and TLR9; endogenous in cells; host or cells: human PBMCs from healthy donors
T2 sequence (Q9NR96 26-1032): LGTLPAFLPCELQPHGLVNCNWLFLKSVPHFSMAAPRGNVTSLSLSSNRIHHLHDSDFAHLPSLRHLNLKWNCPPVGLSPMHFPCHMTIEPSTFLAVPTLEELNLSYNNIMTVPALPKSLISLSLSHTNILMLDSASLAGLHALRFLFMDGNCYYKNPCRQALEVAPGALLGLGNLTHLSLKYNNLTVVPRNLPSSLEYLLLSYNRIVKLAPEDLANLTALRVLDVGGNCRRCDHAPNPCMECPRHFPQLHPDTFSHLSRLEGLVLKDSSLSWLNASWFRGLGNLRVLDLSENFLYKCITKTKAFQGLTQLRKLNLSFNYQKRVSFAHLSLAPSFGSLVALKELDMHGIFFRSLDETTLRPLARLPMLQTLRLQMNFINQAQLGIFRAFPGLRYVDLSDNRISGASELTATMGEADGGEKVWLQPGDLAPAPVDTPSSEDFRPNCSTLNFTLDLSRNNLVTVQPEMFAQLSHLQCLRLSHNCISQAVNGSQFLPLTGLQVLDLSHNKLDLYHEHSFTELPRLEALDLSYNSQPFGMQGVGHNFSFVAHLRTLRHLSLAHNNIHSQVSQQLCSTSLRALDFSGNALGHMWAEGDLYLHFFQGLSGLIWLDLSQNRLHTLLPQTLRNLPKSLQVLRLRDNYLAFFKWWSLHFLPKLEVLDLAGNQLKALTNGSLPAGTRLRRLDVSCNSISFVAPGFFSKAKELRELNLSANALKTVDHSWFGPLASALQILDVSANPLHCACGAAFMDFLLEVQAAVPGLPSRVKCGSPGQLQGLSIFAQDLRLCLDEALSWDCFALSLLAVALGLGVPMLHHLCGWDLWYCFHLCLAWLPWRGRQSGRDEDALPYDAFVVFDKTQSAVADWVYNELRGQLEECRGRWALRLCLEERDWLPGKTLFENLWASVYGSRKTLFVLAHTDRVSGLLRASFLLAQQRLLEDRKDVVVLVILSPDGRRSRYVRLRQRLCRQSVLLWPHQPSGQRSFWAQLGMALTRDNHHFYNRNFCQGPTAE
From the text: as §1, §2

| Structure (SMILES) | EC50 (TLR7) [nM] | EC50 (TLR9) [nM] |
| --- | --- | --- |
| Cc1cc(-c2[nH]c3cc(-c4ccc(N5CCN(C(=O)[C@@H]6CCNC6)CC5)nc4)ccc3c2C)cc(C)n1 [Example 139] | 93.5 | 203 |
| Cc1cc(-c2[nH]c3cc(-c4ccc(N5CC6CNCC6C5)nc4)ccc3c2C)cc(C)n1 (stereo not shown) [Example 34] | 17.7 | 83.4 |
| Cc1cc(-c2[nH]c3cc(-c4nc(N5CCNCC5)cs4)ccc3c2C)cc(C)n1 [Example 185, 2-(2-(2,6-dimethylpyridin-4-yl)-3-methyl-1H-indol-6-yl)-4-(piperazin-1-yl)thiazole] | 37.4 | 54.3 |
| Cc1c(-c2ccc(=O)n(C)c2)[nH]c2cc(-c3ccc(N4CCNCC4)nc3)ccc12 [Example 95, 1-methyl-5-(3-methyl-6-(6-(piperazin-1-yl)pyridin-3-yl)-1H-indol-2-yl)pyridin-2(1H)-one] | 102 | 288 |
| Cc1cc(-c2[nH]c3cc(-c4nc(N5CCNCC5)no4)ccc3c2C)cc(C)n1 [Example 188, 5-[2-(2,6-dimethyl-4-pyridyl)-3-methyl-1H-indol-6-yl]-3-piperazin-1-yl-1,2,4-oxadiazole] | 270 | 175 |
| Cc1cncc(-c2[nH]c3cc(-c4ccc(N5CCNCC5)nc4)ccc3c2C)c1 [Example 84] | 1990 | 964 |
| Cc1cc(-c2[nH]c3cc(-c4ccc(N5CCN(C(=O)C67CNC(C6)C7)CC5)nc4)ccc3c2C)cc(C)n1 [Example 140] | 30.5 | 42.3 |
| Cc1cc(-c2[nH]c3cc(-c4ccc(N5CCC(N)CC5)nc4)ccc3c2C2CC2)cc(C)n1 [Example 104, 1-(5-(3-cyclopropyl-2-(2,6-dimethylpyridin-4-yl)-1H-indol-6-yl)pyridin-2-yl)piperidin-4-amine] | 8.3 | 44.1 |
| Cc1cc(-c2[nH]c3cc(-c4ccn5ncnc5c4)ccc3c2C)cc(C)n1 [Example 58] | 373 | 1130 |
| Cc1cc(-c2[nH]c3cc(-c4ccc(N5CC[C@H](N)C5)nc4)ccc3c2C)cc(C)n1 [Example 32] | 17.7 | 37.3 |
| Cc1cc(-c2[nH]c3cc(-c4ccc(N5CCN(C(=O)[C@@H]6CCCN6C)CC5)nc4)ccc3c2C)cc(C)n1 [Example 108] | 44.5 | 32.1 |
| CCc1c(-c2cc(C)nc(C)c2)[nH]c2cc(C3CCNCC3)ccc12 [Example 49, 2-(2,6-dimethylpyridin-4-yl)-3-ethyl-6-(piperidin-4-yl)-1H-indole] | 549 | 358 |
| Cc1cc(-c2[nH]c3cc(-c4cn(C5CCNCC5)nn4)ccc3c2C)cc(C)n1 [Example 72, 2-(2,6-dimethylpyridin-4-yl)-3-methyl-6-(1-(piperidin-4-yl)-1H-1,2,3-triazol-4-yl)-1H-indole] | 92 | 232 |
| Cc1cc(-c2[nH]c3cc(-c4ccc(C(=O)N5CC[C@@H](N)C5)cc4)ccc3c2C)cc(C)n1 [Example 124] | 55.5 | 111 |
| Cc1cc(-c2[nH]c3cc(-c4ccc5[nH]c(C6CCNCC6)nc5c4)ccc3c2C)cc(C)n1 [Example 147, 5-[2-(2,6-dimethyl-4-pyridyl)-3-methyl-1H-indol-6-yl]-2-(4-piperidyl)-1H-benzimidazole] | > 1000 | 1350 |
| Cc1cc(-c2[nH]c3cc(-c4ccc(N5CCNCC5)nc4)ccc3c2C)nc(C)n1 [Example 96] | 144 | 609 |

More lines, in order of falling EC50 (TLR7), values ahead:

| EC50 (TLR7) [nM] | EC50 (TLR9) [nM] | Structure (SMILES) |
| --- | --- | --- |
| 1720 | 316 | Cc1cc(-c2[nH]c3cc(-c4ccc(N5CCNCC5)nc4)ccc3c2C#N)cc(C)n1 [Example 101, 2-(2,6-dimethylpyridin-4-yl)-6-(6-(piperazin-1-yl)pyridin-3-yl)-1H-indole-3-carbonitrile] |
| 867 | 537 | Cc1cc(-c2[nH]c3cc(-c4ccc(N5CCNCC5)nc4)ncc3c2C)cc(C)n1 [Example 151] |
| 224 | 717 | CC(=O)N1CCN(c2ccc(-c3ccc4c(C)c(-c5cc(C)nc(C)c5)[nH]c4c3)cn2)CC1 [Example 107] |
| 171 | 469 | Cc1cc(-c2[nH]c3cc(-c4ccc5c(c4)[nH]c(=O)n5C4CCNCC4)ccc3c2C)cc(C)n1 [Example 187, 6-[2-(2,6-dimethyl-4-pyridyl)-3-methyl-1H-indol-6-yl]-3-(4-piperidyl)-1H-benzimidazol-2-one] |
| 146 | 83.3 | Cc1cc(-c2[nH]c3cc(-c4ccc(C(=O)N5CCN6CCC5C6)cc4)ccc3c2C)cc(C)n1 (stereo not shown) [Example 128] |
| 26.4 | 310 | Cc1cc(-c2[nH]c3cc(-c4ccc(N5CCN(CCO)C(=O)C5)nc4)ccc3c2C)cc(C)n1 [Example 39] |
| 24.2 | 47.1 | Cc1cc(-c2[nH]c3cc(-c4ccc(C5CCN(CCO)CC5)nc4)ccc3c2C)cc(C)n1 [Example 163] |
| 15.3 | 63.2 | Cc1cc(-c2[nH]c3cc(-c4cnc(N5CCNCC5)nc4)ccc3c2C)cc(C)n1 [Example 65] |
| 14.4 | 24.7 | Cc1cc(-c2[nH]c3cc(-c4ccc(N5CCN(CC(C)(C)O)CC5)nc4)ccc3c2C)cc(C)n1 [Example 129, 1-(4-(5-(2-(2,6-dimethylpyridin-4-yl)-3-methyl-1H-indol-6-yl)pyridin-2-yl)piperazin-1-yl)-2-methylpropan-2-ol] |
| 10.5 | 768 | Cc1cc(-c2[nH]c3cc(-c4ccc(N5CCNCC5)nc4)ccc3c2C)cc(C#N)n1 [Example 77] |
